Experimental data taken from the NIST ThermoML archive (doi:10.1021/acs.jced.5b00654).
“And” between values parts separate entries of the source, which are not always exact repeats. Equal values may be shown once.

Conditions: Fluid (supercritical or subcritical phases); for mass density: Buoyancy - hydrostatic balance with magnetic suspension - one sinker; for viscosity: Vibrating wire viscometry

CCCC [butane]
Conditions | mass density | viscosity
298.11 K, 162.81 kPa | 4.0157 kg/m3 | 0.007353 mPa·s
298.11 K, 162.82 kPa | 4.016 kg/m3 | 0.007354 mPa·s
298.12 K, 142.16 kPa | 3.4823 kg/m3 | 0.007359 mPa·s
298.12 K, 221.35 kPa | 5.5716 kg/m3 | 0.007333 mPa·s
298.12 K, 221.39 kPa | 5.5728 kg/m3 | 0.007334 mPa·s
298.13 K, 123.43 kPa | 3.0049 kg/m3 | 0.007365 mPa·s
298.13 K, 123.44 kPa | 3.0052 kg/m3 | 0.007363 mPa·s
298.13 K, 142.17 kPa | 3.4826 kg/m3 | 0.007359 mPa·s
298.14 K, 61.79 kPa | 1.4756 kg/m3 | 0.007376 mPa·s
298.14 K, 61.8 kPa | 1.4758 kg/m3 | 0.007378 mPa·s
298.14 K, 82.37 kPa | 1.9794 kg/m3 | 0.007375 mPa·s
298.14 K, 82.38 kPa | 1.9797 kg/m3 | 0.007372 mPa·s
298.14 K, 102.9 kPa | 2.4887 kg/m3 | 0.007369 mPa·s
298.14 K, 102.91 kPa | 2.4889 kg/m3 | 0.00737 mPa·s
298.14 K, 175.29 kPa | 4.3414 kg/m3 and 4.3415 kg/m3 | 0.007347 mPa·s and 0.007346 mPa·s
298.14 K, 196.75 kPa | 4.9091 kg/m3 | 0.007342 mPa·s
298.14 K, 196.77 kPa | 4.9096 kg/m3 | 0.007341 mPa·s
298.15 K, 57.18 kPa | 1.3635 kg/m3 and 1.3636 kg/m3 | 0.007377 mPa·s and 0.007378 mPa·s
322.98 K, 450.39 kPa | 11.024 kg/m3 | 0.007953 mPa·s
323 K, 450.69 kPa | 11.032 kg/m3 | 0.007951 mPa·s
323.01 K, 450.89 kPa | 11.037 kg/m3 | 0.007953 mPa·s
323.06 K, 392.1 kPa | 9.426 kg/m3 | 0.007958 mPa·s
323.08 K, 392.5 kPa | 9.4391 kg/m3 | 0.007954 mPa·s
323.09 K, 392.9 kPa | 9.4492 kg/m3 | 0.00796 mPa·s
323.11 K, 380.74 kPa | 9.1236 kg/m3 | 0.007958 mPa·s
323.11 K, 380.78 kPa | 9.1236 kg/m3 | 0.007958 mPa·s
323.12 K, 330.12 kPa | 7.8092 kg/m3 | 0.007967 mPa·s
323.12 K, 330.36 kPa | 7.8164 kg/m3 | 0.007967 mPa·s
323.12 K, 380.76 kPa | 9.1272 kg/m3 | 0.007958 mPa·s
323.13 K, 261.18 kPa | 6.0223 kg/m3 | 0.00797 mPa·s
323.13 K, 261.21 kPa | 6.023 kg/m3 | 0.007973 mPa·s
323.13 K, 301.54 kPa | 7.0807 kg/m3 | 0.00797 mPa·s
323.13 K, 303.39 kPa | 7.1241 kg/m3 | 0.007967 mPa·s
323.13 K, 305.32 kPa | 7.1762 kg/m3 | 0.00797 mPa·s
323.13 K, 330.63 kPa | 7.8215 kg/m3 | 0.007965 mPa·s
